Laboratory results reported in patent US8252822B2, “Heterocyclic compounds and uses as anticancer agents” (Acea Biosciences, Inc., priority 2007, dated 2012).

Tests used:
A549 cells = test: RT-CES cell proliferation inhibition, A549; format: cell-based, Human
From the text: The biological activity of compounds disclosed herein was monitored and profiled using the Real-Time Cell Electronic Sensing (RT-CES®) system from ACEA Biosciences, Inc. The RT-CES system utilizes cell-substrate impedance technology to monitor cellular behavior inside tissue culture wells in a microtiter plate format. The technology features in the integration of molecular and cell biology with microelectronics and is based on the electronic detection of biological assay process. The details of this cell electronic sensing technology and associated devices, systems and methods of use as described in U.S. provisional application No. 60/379,749, filed on Jul. 20, 2002; U.S. provisional application No. 60/435,400, filed on Dec. 20, 2002; U.S. Provisional application 60/469,572, filed on May 9, 2003, PCT application number PCT/US03/22557, filed on Jul. 18, 2003; PCT application number PCT/US03/22537, filed on Jul. 18, 2003; U.S. patent application Ser. No. 10/705,447, filed on Nov. 10, 2003; U.S. patent application Ser. No. 10/705,615, filed on Nov. 10, 2003, each of which is incorporated by reference. Additional details of RT-CES technology is further disclosed in U.S. provisional application No. 60/519,567, filed on Nov. 12, 2003, and U.S. provisional application No. 60/542,927, filed on Feb. 9, 2004.
For measurement of cell-substrate or cell-electrode impedance using RT-CES technology, microelectrodes having appropriate geometries are fabricated onto the bottom surfaces of microtiter plate or similar device, facing into the wells. Cells are introduced into the wells of the devices, and make contact to and attach to the electrode surfaces. The presence, absence or change of properties of cells affects the electronic and ionic passage on the electrode sensor surfaces. Measuring the impedance between or among electrodes provides important information about biological status of cells present on the sensors. When there are changes to the biological status of the cells analogue electronic readout signals are measured automatically and in real time, and are converted to digital signals for processing and for analysis. In a RT-CES system, a cell index (arbitrary representation of change in impedance) is automatically derived and provided based on measured electrode impedance values. The cell index obtained for a given well reflects: 1) how many cells are attached to the electrode surfaces in this well; 2) how well cells are attached to the electrode surfaces in this well. Thus, the more the cells of same type in similar physiological conditions attach the electrode surfaces, the larger the cell index. And, the better the cells attach to the electrode surfaces (e.g., the cells spread-out more to have larger contact areas, or the cells attach tighter to electrode surfaces), the larger the cell index.
The RT-CES system comprises three components, an electronic sensor analyzer, a device station and 16× or 96× microtiter devices. Microelectrode sensor array was fabricated on glass slides with lithographical microfabrication methods and the electrode-containing slides are assembled to plastic trays to form electrode-containing wells. The device station receives the 16× or 96× microtiter plate devices and is capable of electronically switching any one of the wells to the sensor analyzer for impedance measurement. In operation, the devices with cells cultured in the wells are placed into a device station that is located inside an incubator. Electrical cables connect the device station to the sensor analyzer. Under the RT-CES software control, the sensor analyzer can automatically select wells to be measured and continuously conduct impedance measurements. The impedance data from the analyzer is transferred to a computer, analyzed and processed by the integrated software.
To quantify cell status based on the measured cell-electrode impedance, a parameter termed Cell Index is derived. […]

melting point | Structure (SMILES) | response pattern of A549 cells compared with paclitaxel (A549 cells; 140 nM of compound vs 12.5 nM of paclitaxel) | response pattern of A549 cells compared with paclitaxel (A549 cells; 560 nM of compound vs 25 nM of paclitaxel) | concentration at or above which cell indices first decreased with time and then increased (A549 cells; A549, complex kinetic responses) | IC50 (A549 cells; Homo sapiens, A549, 24 hours after compound treatment, normalized Cell Index, read-out: IC50 (24 hr)) | inhibitory ability against the proliferation of A549 cells (A549 cells; various concentrations studied, time-dependent cell index)
> 250 °C | Br.Cc1nc2sccn2c1-c1csc(Nc2ccc(Br)cc2)n1 | – | – | – | – | –
– | Br.Cc1nc2sccn2c1-c1csc(Nc2ccc(Br)cc2)n1 [Compound 28, 2-(4-bromophenyl)amino-4-(6-methylimidazo[2,1-b]thiazol-5-yl)thiazole] | somewhat similar | somewhat similar | ≥ 0.14 µM | 86.4 nM | exhibited inhibitory ability against the proliferation of A549 cells
